Measured values reported in BigSolDB 2.1.

Cc1ccc(S(=O)(=O)NC(=O)NN2CC3CCCC3C2)cc1 (stereo not drawn)
solubility (mole fraction)
Conditions | 278.15 K | 283.15 K | 288.15 K | 293.15 K | 298.15 K | 303.15 K | 308.15 K | 313.15 K | 318.15 K
in DMF | 0.0571 | 0.0629 | 0.0684 | 0.0743 | 0.0801 | 0.0866 | 0.0935 | 0.101 | 0.109
in THF | 0.018 | 0.0217 | 0.0266 | 0.0318 | 0.0384 | 0.0462 | 0.0539 | 0.0635 | 0.076
in acetone | 0.00883 | 0.0103 | 0.0121 | 0.0141 | 0.0166 | 0.0191 | 0.0219 | 0.0252 | 0.0291
in acetonitrile | 0.00172 | 0.00211 | 0.00262 | 0.00319 | 0.0039 | 0.00473 | 0.00557 | 0.00658 | 0.00796
in chloroform | 0.0581 | 0.0641 | 0.07 | 0.0773 | 0.0842 | 0.0919 | 0.1 | 0.109 | 0.119
in cyclohexanone | 0.0112 | 0.0133 | 0.0155 | 0.0181 | 0.0209 | 0.0243 | 0.0278 | 0.0322 | 0.0371
in ethanol | 0.000739 | 0.000911 | 0.00113 | 0.00137 | 0.00169 | 0.00203 | 0.00249 | 0.00296 | 0.00358
in ethyl acetate | 0.00146 | 0.00174 | 0.00212 | 0.00248 | 0.00294 | 0.00351 | 0.00411 | 0.00477 | 0.00558
in ethyl formate | 0.00188 | 0.00239 | 0.00297 | 0.00364 | 0.00453 | 0.00549 | 0.00673 | 0.0082 | 0.00976
in isobutanol | 0.00042 | 0.000544 | 0.000709 | 0.000916 | 0.00114 | 0.00146 | 0.0018 | 0.00226 | 0.00286
in isopropanol | 0.000332 | 0.000439 | 0.000579 | 0.000738 | 0.000945 | 0.0012 | 0.00151 | 0.00192 | 0.00241
in methanol | 0.00122 | 0.00149 | 0.00178 | 0.00216 | 0.00257 | 0.00304 | 0.00358 | 0.00428 | 0.00497
in methyl acetate | 0.00229 | 0.00283 | 0.00339 | 0.00418 | 0.00499 | 0.00588 | 0.00699 | 0.00838 | 0.00982
in n-butanol | 0.000624 | 0.000787 | 0.000984 | 0.00123 | 0.00152 | 0.00192 | 0.0023 | 0.00286 | 0.00344
in n-propanol | 0.000655 | 0.000831 | 0.00103 | 0.00129 | 0.00162 | 0.00199 | 0.00238 | 0.00291 | 0.0035
in sec-butanol | 0.000505 | 0.000643 | 0.000834 | 0.00106 | 0.00133 | 0.00166 | 0.00205 | 0.00258 | 0.00322
in toluene | 0.000307 | 0.000395 | 0.000499 | 0.000634 | 0.000789 | 0.000979 | 0.00119 | 0.0015 | 0.00181
